Columns and labels:
[1] = test system: OCI-Ly1_R110 cells; format: cell-based; conditions: human, 24 h
Experimental: (§1) The graph depicts a titration of ibrutinib to determine toxicity towards OCI-Ly1 cell models upon administration of serial dilutions of ibrutinib (11 steps, ranges 0.01 to 20 μM) to OCI-Ly1 wt or OCI-Ly1_R110 cells for 24 hours. Cell growth in percent was plotted as total numbers of ibrutinib-treated cells relative to the total number of untreated cells. […] This dose was thus chosen for further testing of CAR T efficacy.
(§2) Coadministration of BTK-inhibitors like ibrutinib-a BTK/ITK inhibitor known to restore T cell functionality—to CAR T cell can have additive anti-tumor effects. To test this in the R110 CAR T setting, ibrutinib toxicity for OCI-Ly1 target cells was assessed first. For this, 2×10^4 OCI-Ly1 wt and OCI-Ly1_R110 cells were seeded in 200 μl culture media supplemented with serial dilutions of ibrutinib (PCI-32765, Selleck Chemicals, Cat. S2680) ranging from 0.01 to 20 μM. Cells grown under the same conditions without ibrutinib served as control. After 24h incubation, viable (trypan blue exclusion) cells were counted using the Vi-CELL XR system (Beckman Coulter). Cell growth in percent was then plotted as total numbers of ibrutinib-treated cells relative to the total number of untreated cells (FIG. 10). […] This dose was thus chosen for further testing of CAR T efficacy.

[2] = test system: OCI-Ly1 wt cells; format: cell-based; conditions: human, 24 h
Experimental: as §1, §2

Q: Which results are given for `C=CC(=O)N1CCC[C@@H](n2nc(-c3ccc(Oc4ccccc4)cc3)c3c(N)ncnc32)C1` [ibrutinib]?
A: highest dose that does not result in a viability drop of target cells [1]: 0.08 UM; highest dose that does not result in a viability drop of target cells [2]: 0.08 UM

— patent publication US20260035459A1, “HUMANIZED CHIMERIC ANTIGEN RECEPTORS TARGETING THE B-CELL RECEPTOR OF CHRONIC LYMPHOCYTIC LEUKEMIA AND USES THEREOF” (AVA LIFESCIENCE GMBH, priority 2022, published 2026)
